Measurements published in patent publication US20190358181A1, “METHODS FOR AUTISM SPECTRUM DISORDER PHARMACOTHERAPY” (priority 2017, published 2019).

System: 610 metabolites from 63 biochemical pathways
Experiment: Targeted broad-spectrum plasma metabolomic analysis (LC-MS/MS), paired pre-infusion vs post-infusion (2-days and 6-weeks)
Assay type: in vivo, human
Settings: plasma, 2-days after infusion vs pre-infusion
Experimental: Targeted, broad-spectrum, plasma metabolomic analysis of 610 metabolites from 63 biochemical pathways was performed by high performance liquid chromatography and tandem mass spectrometry (LC-MS/MS) on the samples collected from patients in Example 1. Venous blood was collected between the hours of 8 am and 5 pm, at least 3 hours after the last meal, into lithium-heparin vacutainer tubes (BD #367884). Plasma was separated by centrifugation at 900 g×10 minutes at room temperature within one hour of collection. The resulting fresh lithium-heparin plasma was transferred to labeled 1.2 ml or 2.0 ml externally threaded cryotubes with a minimum headspace air gap for storage at −80° C. for analysis. Samples were analyzed on an AB SCIEX QTRAP 5500 triple quadrupole mass spectrometer equipped with a Turbo V electrospray ionization (ESI) source, Shimadzu LC-20A UHPLC system, and a PAL CTC autosampler. Typically, 90 μl of plasma was thawed on ice and transferred to a 1.7 ml Eppendorf tube. Five (5.0) μl of a cocktail containing 25-35 commercial stable isotope internal standards, and 5.0 μl of 57 stable isotope internal standards that were custom-synthesized in E. coli NCM3722, Caenorhabditis elegans N2, and Komagataella phaffii (ATCC 76273; formerly known as Pichia pastoris) by metabolic labeling with 13C-glucose and 13C-bicarbonate, were added, mixed, and incubated for 10 min at 20° C. to permit small molecules and vitamins in the internal standards to associate with plasma binding proteins. Macromolecules (protein, DNA, RNA, glycans, etc.) were precipitated by extraction with 4 volumes (400 μl) of cold (−20° C.), acetonitrile:methanol (50:50) (LCMS grade, Cat #LC015-2.5 and GC230-4, Burdick & Jackson, Honeywell), vortexed vigorously, and incubated on crushed ice for 10 min, then removed by centrifugation at 16,000 g×10 min at 4° C. The supernatants containing the extracted metabolites and internal standards in the resulting 40:40:20 solvent mix of acetonitrile:methanol:water were transferred to labeled cryotubes and stored at −80° C. for LCMS/MS analysis.
LC-MS/MS analysis was performed by scheduled multiple reaction monitoring (sMRM) under Analyst v1.6.2 software control in both negative and positive mode with rapid polarity switching (50 ms). Nitrogen was used for curtain gas (set to 30), collision gas (set to high), ion source gas 1 and 2 (set to 35). The source temperature was 500° C. Spray voltage was set to −4500 V in negative mode and 5500 V in positive mode. The values for Q1 and Q3 mass-to-charge ratios (m/z), declustering potential (DP), entrance potential (EP), collision energy (CE), and collision cell exit potential (CXP) were determined and optimized for each MRM for each metabolite. Ten microliters of extract was injected by PAL CTC autosampler via a 10 μl stainless steel loop into a 250 mm×2.0 mm, 4 μm polymer based NH2 HPLC column (Asahipak NH2P-40 2E, Showa Denko America, Inc., NY) held at 25° C. for chromatographic separation. The mobile phase was solvent A: 95% water with 20 mM (NH4)2CO3 (Sigma, Fluka Cat #74415-250G-F), 5% acetonitrile, and 38 mM NH4OH (Sigma, Fluka Cat #17837-100ML), final pH 9.75; solvent B: 100% acetonitrile. Separation was achieved using the following gradient: 0-3.5 min: 95% B, 3.6-8 min: 85% B, 8.1-13 min: 75% B, 13.5-35 min: 0% B, 36-46 min: 95% B, 46.1 min: end. The flow rate was 200 μl/min. Pump pressures ranged from 920-2600 psi over the course of the gradient. All the samples were kept at 4° C. during analysis. The chromatographic peaks were identified using MultiQuant (v3.0, Sciex), confirmed by manual inspection, and the peak areas integrated. […]

[1] = Cholesterol, Cortisol, Non-Gonadal Steroid Metabolism
[2] = Eicosanoid and Resolvin Metabolism
[3] = Fatty Acid Oxidation and Synthesis
[4] = GABA, Glutamate, Arginine, Ornithine, Proline Metabolism
[5] = Gamma-Glutamyl and other Dipeptides
[6] = Glycolysis and Gluconeogenesis Metabolism
[7] = Histidine, Histamine, Carnosine Metabolism
[8] = Nitric Oxide, Superoxide, Peroxide Metabolism
[9] = SAM, SAH, Methionine, Cysteine, Glutathione Metabolism
[10] = Taurine, Hypotaurine Metabolism
[11] = Tryptophan, Kynurenine, Serotonin, Melatonin Metabolism
[12] = Tyrosine and Phenylalanine Metabolism
[13] = Vitamin D (Calciferol) Metabolism

## Cc1ccc(C(=O)Nc2ccc(S(=O)(=O)O)c3cc(S(=O)(=O)O)cc(S(=O)(=O)O)c23)cc1NC(=O)c1cccc(NC(=O)Nc2cccc(C(=O)Nc3cc(C(=O)Nc4ccc(S(=O)(=O)O)c5cc(S(=O)(=O)O)cc(S(=O)(=O)O)c45)ccc3C)c2)c1 [Suramin, suramin]
Ceramide Metabolism
  Z Abs, Ceramide(d18:1/18:2): 0.530
  Z Score, Ceramide(d18:1/18:2): 0.530
[1]
  Linear Ratio, 24,25-Epoxycholesterol: 1.362
  VIP Score, 24,25-Epoxycholesterol: 1.807
  Z Abs, 24,25-Epoxycholesterol: 1.014
  Z Score, 24,25-Epoxycholesterol: 1.014
[2]
  Linear Ratio, 5-HETE: 0.866
  Linear Ratio, 11(R)-HETE: 0.748
  Linear Ratio, 11,12-Epoxyeicosatrienoic acid: 0.828
  Linear Ratio, Prostaglandin J2: 0.649
  VIP Score, 5-HETE: 1.646
  VIP Score, 11(R)-HETE: 2.400
  VIP Score, 11,12-Epoxyeicosatrienoic acid: 1.535
  VIP Score, Prostaglandin J2: 1.509
  Z Abs, 5-HETE: 0.671
  Z Abs, 11(R)-HETE: 0.875
  Z Abs, 11,12-Epoxyeicosatrienoic acid: 0.634
  Z Abs, Prostaglandin J2: 0.601
  Z Score, 5-HETE: −0.671
  Z Score, 11(R)-HETE: −0.875
  Z Score, 11,12-Epoxyeicosatrienoic acid: −0.634
  Z Score, Prostaglandin J2: −0.601
Endocannabinoid Metabolism
  Linear Ratio, Anandamide: 0.684
  VIP Score, Anandamide: 1.713
  Z Abs, Anandamide: 0.709
  Z Score, Anandamide: −0.709
[3]
  Linear Ratio, Malonic acid: 0.904
  VIP Score, Malonic acid: 1.833
  Z Abs, Malonic acid: 0.825
  Z Score, Malonic acid: −0.825
[4]
  Linear Ratio, Gamma-Aminobutyric acid: 1.068
  Linear Ratio, L-Proline: 1.155
  Linear Ratio, N-Acetylglutamic acid: 1.120
  VIP Score, Gamma-Aminobutyric acid: 1.626
  VIP Score, L-Proline: 1.548
  VIP Score, N-Acetylglutamic acid: 1.505
  Z Abs, Gamma-Aminobutyric acid: 1.101
  Z Abs, L-Proline: 0.603
  Z Abs, N-Acetylglutamic acid: 0.613
  Z Score, Gamma-Aminobutyric acid: 1.101
  Z Score, L-Proline: 0.603
  Z Score, N-Acetylglutamic acid: 0.613
[5]
  Linear Ratio, Gamma-glutamyl-Alanine: 1.294
  Linear Ratio, Glycylproline: 1.773
  VIP Score, Gamma-glutamyl-Alanine: 1.575
  VIP Score, Glycylproline: 2.205
  Z Abs, Gamma-glutamyl-Alanine: 0.896
  Z Abs, Glycylproline: 1.212
  Z Score, Gamma-glutamyl-Alanine: 0.896
  Z Score, Glycylproline: 1.212
[6]
  Linear Ratio, 2,3-Diphosphoglyceric acid: 1.198
  Linear Ratio, Glycerol 3-phosphate: 1.187
  VIP Score, 2,3-Diphosphoglyceric acid: 2.600
  VIP Score, Glycerol 3-phosphate: 1.651
  Z Abs, 2,3-Diphosphoglyceric acid: 0.990
  Z Abs, Glycerol 3-phosphate: 1.151
  Z Score, 2,3-Diphosphoglyceric acid: 0.990
  Z Score, Glycerol 3-phosphate: 1.151
Glycosphingolipid Metabolism
  Linear Ratio, GC(18:1/22:0): 1.399
  VIP Score, GC(18:1/22:0): 2.123
  Z Abs, GC(18:1/22:0): 1.057
  Z Score, GC(18:1/22:0): 1.057
[7]
  Linear Ratio, 1-Methylhistidine: 1.145
  VIP Score, 1-Methylhistidine: 1.848
  Z Abs, 1-Methylhistidine: 0.899
  Z Score, 1-Methylhistidine: 0.899
Krebs Cycle
  Linear Ratio, Citramalic acid: 1.121
  Linear Ratio, Citric acid: 1.142
  VIP Score, Citramalic acid: 1.704
  VIP Score, Citric acid: 1.590
  Z Abs, Citramalic acid: 1.229
  Z Abs, Citric acid: 0.759
  Z Score, Citramalic acid: 1.229
  Z Score, Citric acid: 0.759
Microbiome Metabolism
  Linear Ratio, 2-Keto-L-gluconate: 1.264
  Linear Ratio, Indoxyl sulfate: 1.280
  Linear Ratio, Shikimate-3-phosphate: 1.047
  Linear Ratio, p-Hydroxyphenylacetic acid: 1.192
  VIP Score, 2-Keto-L-gluconate: 2.994
  VIP Score, Indoxyl sulfate: 1.858
  VIP Score, Shikimate-3-phosphate: 1.886
  VIP Score, p-Hydroxyphenylacetic acid: 2.546
  Z Abs, 2-Keto-L-gluconate: 2.586
  Z Abs, Indoxyl sulfate: 0.702
  Z Abs, Shikimate-3-phosphate: 1.033
  Z Abs, p-Hydroxyphenylacetic acid: 1.464
  Z Score, 2-Keto-L-gluconate: 2.586
  Z Score, Indoxyl sulfate: 0.702
  Z Score, Shikimate-3-phosphate: 1.033
  Z Score, p-Hydroxyphenylacetic acid: 1.464
[8]
  Linear Ratio, Azelaic acid: 0.914
  VIP Score, Azelaic acid: 1.929
  Z Abs, Azelaic acid: 2.024
  Z Score, Azelaic acid: −2.024
Phospholipid Metabolism
  Linear Ratio, LysoPC(16:0): 0.777
  Linear Ratio, PA(16:0/16:1): 0.793
  Linear Ratio, PG(16:0/16:0): 0.549
  VIP Score, LysoPC(16:0): 2.067
  VIP Score, PA(16:0/16:1): 1.998
  VIP Score, PG(16:0/16:0): 1.664
  Z Abs, LysoPC(16:0): 0.908
  Z Abs, PA(16:0/16:1): 0.813
  Z Abs, PG(16:0/16:0): 0.667
  Z Score, LysoPC(16:0): −0.908
  Z Score, PA(16:0/16:1): −0.813
  Z Score, PG(16:0/16:0): −0.667
Purine Metabolism
  Linear Ratio, 1-Methyladenine: 1.631
  Linear Ratio, AICAR: 1.309
  Linear Ratio, Allantoin: 1.663
  Linear Ratio, Cyclic adenosine monophosphate: 0.855
  Linear Ratio, Deoxyguanosine diphosphate: 0.889
  Linear Ratio, Guanosine: 0.702
  Linear Ratio, Hypoxanthine: 0.745
  Linear Ratio, Purine: 1.203
  Linear Ratio, Xanthosine: 0.821
  VIP Score, 1-Methyladenine: 2.033
  VIP Score, AICAR: 1.787
  VIP Score, Allantoin: 2.195
  VIP Score, Cyclic adenosine monophosphate: 1.949
  VIP Score, Deoxyguanosine diphosphate: 2.264
  VIP Score, Guanosine: 1.519
  VIP Score, Hypoxanthine: 2.267
  VIP Score, Purine: 1.847
  VIP Score, Xanthosine: 1.764
  Z Abs, 1-Methyladenine: 1.337
  Z Abs, AICAR: 1.310
  Z Abs, Allantoin: 0.926
  Z Abs, Cyclic adenosine monophosphate: 0.681
  Z Abs, Deoxyguanosine diphosphate: 1.276
  Z Abs, Guanosine: 0.766
  Z Abs, Hypoxanthine: 1.000
  Z Abs, Purine: 1.137
  Z Abs, Xanthosine: 1.316
  Z Score, 1-Methyladenine: 1.337
  Z Score, AICAR: 1.310
  Z Score, Allantoin: 0.926
  Z Score, Cyclic adenosine monophosphate: −0.681
  Z Score, Deoxyguanosine diphosphate: −1.276
  Z Score, Guanosine: −0.766
  Z Score, Hypoxanthine: −1.000
  Z Score, Purine: 1.137
  Z Score, Xanthosine: −1.316
Pyrimidine Metabolism
  Linear Ratio, Cytosine: 1.689
  Linear Ratio, Orotic acid: 0.670
  VIP Score, Cytosine: 2.556
  VIP Score, Orotic acid: 1.787
  Z Abs, Cytosine: 2.055
  Z Abs, Orotic acid: 0.612
  Z Score, Cytosine: 2.055
  Z Score, Orotic acid: −0.612
[9]
  Linear Ratio, Cysteamine: 1.107
  Linear Ratio, Cysteine-S-sulfate: 0.869
  Linear Ratio, Methionine sulfoxide: 1.331
  VIP Score, Cysteamine: 2.075
  VIP Score, Cysteine-S-sulfate: 1.682
  VIP Score, Methionine sulfoxide: 1.817
  Z Abs, Cysteamine: 1.398
  Z Abs, Cysteine-S-sulfate: 0.644
  Z Abs, Methionine sulfoxide: 1.738
  Z Score, Cysteamine: 1.398
  Z Score, Cysteine-S-sulfate: −0.644
  Z Score, Methionine sulfoxide: 1.738
Sphingomyelin Metabolism
  Linear Ratio, SM(d18:1/20:0): 0.712
  Linear Ratio, SM(d18:1/20:1): 0.745
  VIP Score, SM(d18:1/20:0): 1.576
  VIP Score, SM(d18:1/20:1): 2.033
  Z Abs, SM(d18:1/20:0): 0.770
  Z Abs, SM(d18:1/20:1): 1.250
  Z Score, SM(d18:1/20:0): −0.770
  Z Score, SM(d18:1/20:1): −1.250
[10]
  Linear Ratio, Taurine: 0.786
  VIP Score, Taurine: 2.042
  Z Abs, Taurine: 0.942
  Z Score, Taurine: −0.942
[11]
  Linear Ratio, L-Kynurenine: 1.099
  VIP Score, L-Kynurenine: 1.617
  Z Abs, L-Kynurenine: 0.625
  Z Score, L-Kynurenine: 0.625
[12]
  Linear Ratio, L-Phenylalanine: 1.164
  VIP Score, L-Phenylalanine: 1.839
  Z Abs, L-Phenylalanine: 0.957
  Z Score, L-Phenylalanine: 0.957
[13]
  Linear Ratio, 1,25-Dihydroxyvitamin D3: 0.273
  VIP Score, 1,25-Dihydroxyvitamin D3: 3.134
  Z Abs, 1,25-Dihydroxyvitamin D3: 1.447
  Z Score, 1,25-Dihydroxyvitamin D3: −1.447
